From publication PMC6269653, “Stability and Antioxidant Activity of Semi-synthetic Derivatives of 4-Nerolidylcatechol” (Molecules, 2012)
“And” between values parts separate entries of the source, which are not always exact repeats. Equal entries are not always repeated. “Also recorded” adds a separate entry of the source. Where two headings read alike, the source gives them in different places. Marks after values point to notes of the source that are not given here.

Tests used:
Plasmodium falciparum = system: Plasmodium falciparum; set-up: method as in PMID 17568942; conditions: cited from earlier work
normal fibroblast cells = system: normal fibroblast cells; set-up: method as in PMID 19059332; conditions: cited from earlier work
[1] = system: Mouse embryonic fibroblast cells (3T3L1 line); assay: Cell viability assay (alamar blue); assay type: cell-based; conditions: ‡ >50 µg/mL, read-out: Toxicity Mouse embryonic fibroblast cells (3T3L1 line) (IC50)
Description: The cytotoxicity of 4-NC and derivatives of 4-NC 1–8 to mouse embryonic fibroblast line 3T3L1 was evaluated using alamar blue to measure cell survival/proliferation. The substances at different concentrations (12.5, 25 and 50 µM) were separately incubated with cells and the number of viable cells was counted after 24, 48 and 72 h. […] O,O-Dibenzyl 4-NC (1) was not active (i.e. not toxic to A. franciscana) in the brine shrimp assay (Table 1).
3T3-L1 cells (mouse embryonic fibroblasts) were obtained from the Cell Bank of Rio de Janeiro, Brazil and were maintained in Dulbecco’s Modified Eagle Medium (DMEM) which was supplemented with 10% fetal bovine serum (FBS), penicillin (100 U/mL) and streptomycin (100 U/mL). The cells were incubated at 37 °C in a humidified atmosphere containing 5% of CO2.
The cytotoxicity of 4-NC and its semi-synthetic derivatives 1–8 to the 3T3L1 mouse embryonic fibroblast cell line fibroblasts was determined by the alamar blue method as described by Nakayama and co-workers. The alamar blue assay is a colorimetric assay involving the cellular reduction of resazurin to resorufin. Briefly, adherent cells (5 × 10^3 cells/well) were grown in 96-well tissue culture plates and exposed to substances (50, 25 and 12.5 μM) for 24, 48 and 72 h. After incubation, the alamar blue solution (10 µL of 0.4% alamar blue (resazurin) in PBS) was added and the cells were incubated for 2 h at 37 °C. Fluorescence was measured (excitation at 545 nm and emission at 595 nm) and expressed as a percentage of the cells in the control after background fluorescence was subtracted. The assays were performed in triplicate.

rat brain homogenates = system: rat brain homogenates; set-up: method as in ref 8 = [8]; 8. De Freitas P.C.D. Atividade Antioxidante de Espécies Medicinais da Família Piperaceae: Pothomorphe umbellata (L.) Miq. e Piper regnelli (Miq.) C. DC Ph.D. Thesis University of São Paulo (USP) São P; conditions: inhibition of spontaneous lipoperoxidation; cited from earlier work
[2] = ABTS radical-scavenging activity; assay type: biochemical; conditions: compounds tested at 250 µM, mean ± standard deviation, n = 3
Description: The ABTS assay used herein was based on the method of Re et al. with slight modifications. Substances at concentrations of 250 µM, BHT or BHA were added to dilute ABTS solution and the absorbance at […] was measured. The antioxidant activity was calculated using the equation: % inhibition = 100 × (1 − sample abs/control abs).

[3] = DPPH radical-scavenging activity; assay type: biochemical; conditions: compounds tested at 250 µM, mean ± standard deviation, n = 3
Description: The measurement of the scavenger activity of DPPH• was carried out according to the method of Molineux with modifications. Substances at 250 µM were added, at an equal volume, to the methanol solution of DPPH• ([…]). After 15 min at room temperature, the absorbance was recorded at 517 nm (sample abs). The experiment was repeated three times. BHT, BHA were used as controls. Values denote percentage of DPPH free radical inhibition. The antioxidant activity was calculated using the equation: % inhibition = 100 × (1 − sample abs/control abs).

tumor cell lines = conditions: cited from earlier work
KB tumor cells = system: KB tumor cells; set-up: method as in PMID 10364848; conditions: cited from earlier work
human topoisomerase I = system: human topoisomerase I; set-up: method as in PMID 10364848; conditions: cited from earlier work
[4] = system: 3T3L1 mouse embryonic fibroblast cell line; assay: Cellular antioxidant activity (oxidation of DCFH-DA); assay type: cell-based; set-up: inhibition of the oxidation of DCFH-DA in 3T3L1 cells: concentration or dose not given beside the values; conditions: for loss of antioxidant activity after storage: DMSO solution stored at −20 °C for 30 days; for inhibition of the oxidation of DCFH-DA in 3T3L1 cells: over the observation period of 60 min
Description: These tests evaluate the reducing effect of a given substance on the radical species formed in situ during these assays leading to a decrease in color versus controls that is measured spectrophotometrically. […] Thus, at a concentration of 250 µM, 4-NC inhibited DPPH• and ABTS+• by 97% and 95%, respectively. Mono-O-substituted 4-NC derivatives 2–5 inhibited ABTS+• by 89–93%. […] The antioxidant activity was also evaluated in mouse embryonic 3T3L1 fibroblasts. In this assay DCFH-DA (2',7'-dichlorofluorescein diacetate) is hydrolyzed by intracellular esterases and then oxidized by reactive oxygen species (ROS) to the fluorescent compound 2'-7'-DCF. An active antioxidant substance can inhibit the transformation of fatty acids to fatty acid hydroperoxides in the cell membranes and thereby inhibit the oxidation of DCFH-DA.
The antioxidant activity of 4-NC and semi-synthetic derivatives of 4-NC was evaluated on the 1st and 30th days after dissolving the substances in DMSO at a concentration of 10 mM and storage in a freezer at −20 °C. This experiment permitted the evaluation of the relative stability of the antioxidant activity of 4-NC, derivatives of 4-NC, BHT and BHA. Thus, cellular antioxidants were evaluated using the mouse embryonic fibroblast 3T3L1 cell line. […] The presence of mono-O or di-O,O substituent groups in the 4-NC derivatives can confer stability relative to 4-NC. Such chemical stability is highly desirable when contemplating the use of such substances in cosmetic and pharmaceutical formulations and foods. Here, 4-NC dissolved in DMSO lost more than 80% of its antioxidant activity after 30 days in the freezer.
Intracellular ROS production was detected using the non-fluorescent cell permeating compound, 2'7'-dichlorofluorescein diacetate (DCF-DA), as described by Wolfe and Liu. DCF-DA is hydrolyzed by intracellular esterases and then oxidized by hydroperoxides into the fluorescent compound, 2'-7'-DCF. 3T3-L1 cells were seeded at a density of 6 × 10^4 cells/well in a 96-well microplate in 100 μL of growth medium. 24 h after seeding, the growth medium was removed and the wells were washed with PBS. Then, a 10 μM solution of DCFH-DA dissolved in Hank’s buffer (100 μL) was added to wells and incubated for 30 min at 37 °C and 5% CO2. The cells were washed first with PBS (100 μL) then EEP (100 µL) and samples having different concentrations were added. The fluorescence was immediately measured at an excitation wavelength of 485 nm and emission wavelength of 520 nm over 60 min at 5 min intervals. Controls with/without DCFH-DA were prepared and subjected to analogous procedures. Quercetin, BHA and BHT were used as positive controls of antioxidant activity.

[5] = system: melanoma cell lines (SK-Mel-28, 103 and 147); set-up: method as in PMID 19059332; conditions: read-out: IC50 in vitro growth of melanoma cell lines; cited from earlier work
Plasmodium berghei = conditions: cited from earlier work
Artemia franciscana = assay: Brine shrimp assay; conditions: in vivo
Brine shrimp assay = assay: Brine shrimp assay; set-up: species or system Artemia franciscana; conditions: Artemia franciscana (brine shrimp), in vivo, read-out: Toxicity Brine shrimp (Artemia franciscana) (LC50)
[6] = system: leukemia cells (HL-60 strain); set-up: method as in PMID 19084293; conditions: read-out: IC50 growth of leukemia cells; cited from earlier work
[7] = system: colon tumor cells (HCT-8 strain), central nervous system tumor cells (SF295 strain) and leukemia cells (HL-60 strain); set-up: method as in PMID 19084293; conditions: HCT-8, SF295 and HL-60; read-out: cytotoxicity IC50; cited from earlier work
[8] = Mus musculus, 3T3-L1, alamar blue
[9] = † >500 µg/mL, 4 and 5 tested separately

Row | Molecule | ABTS (%) percentage of inhibition [2] | IC50 [1, 8] | DPPH• (%) percentage of inhibition [3] | cytotoxic activity against Artemia franciscana in the brine shrimp assay (Artemia franciscana) | LC50 (Brine shrimp assay; [9]) | further results
1 | 4-nerolidylcatechol [Compound 4-NC] | – | – | – | – | – | in vitro activity against Plasmodium falciparum (Plasmodium falciparum): high in vitro activity; IC50 (normal fibroblast cells): 50 µM; IC50 ([1]; alamar blue): 31.4 µM and 31.5 µM; in vitro antioxidant activity relative to α-tocopherol (vitamin E) (rat brain homogenates): approximately 20 times; ABTS (%) percentage of inhibition ([2]; 250 µM): 95% and 94.82 ± 0.22 ^a %; DPPH• (%) percentage of inhibition ([3]; 250 µM): 97% and 96.53 ± 0.50 ^a %; IC50 (tumor cell lines): 19.7 to 38.8 µM; toxicity in vitro to KB tumor cells (KB tumor cells): toxic; inhibition of human topoisomerase I (human topoisomerase I): inhibits; loss of antioxidant activity after storage ([4]; 3T3L1 cells): more than 80%; inhibition of the oxidation of DCFH-DA in 3T3L1 cells [4]: ≥ 20%; IC50 [5]: 20 to 40 µM; in vivo activity in Plasmodium berghei-infected mice (Plasmodium berghei): low in vivo activity; also recorded: little activity
2 | COc1ccc(O)c(C(C)(C)C)c1 [BHA, butylated hydroxyanisole, reference compound] | 94.71 ± 0.47 ^a % | – | – | – | – | DPPH• (%) percentage of inhibition ([3]; 250 µM): 98% and 97.97 ± 0.10 ^a %; loss of antioxidant activity after storage ([4]; 3T3L1 cells): ≥ 70%
3 | Cc1cc(C(C)(C)C)c(O)c(C(C)(C)C)c1 [BHT, butylated hydroxytoluene, reference compound] | 93.13 ± 0.18 ^a % | – | – | – | – | DPPH• (%) percentage of inhibition ([3]; 250 µM): 17% and 16.84 ± 0.81 ^c %; increase of antioxidant activity after storage ([4]; DMSO solution, 30 days of storage in the freezer, 3T3L1 cells): approximately 100%
4 | C=CC(C)(CC/C=C(\C)CCC=C(C)C)c1ccc(OCc2ccccc2)c(OCc2ccccc2)c1 (centres unmarked) [Compound 1, O,O-Dibenzyl 4-NC] | 7.97 ± 2.72 ^b % | > 101 µM | 4.35 ± 0.71 ^c % | not active | > 1000 µM | activity against tumor cells (tumor cell lines): inactive
5 | C=CC(C)(CC/C=C(\C)CCC=C(C)C)c1ccc(OCc2ccccc2)c(O)c1 (centres unmarked) [Compound 2, 1-O-benzyl 4-NC] | 91.12 ± 0.68 ^a % | – | 44.20 ± 0.01 ^b % | weak cytotoxic activity | 1000 µM | activity against tumor cells (tumor cell lines): inactive
6 | C=CC(C)(CC/C=C(\C)CCC=C(C)C)c1ccc(O)c(OCc2ccccc2)c1 (centres unmarked) [Compound 3, 2O-monobenzyl derivative of 4-NC] | 93.31 ± 0.30 ^a % | > 124 µM | 48.09 ± 1.33 ^b % | weak cytotoxic activity | > 1200 µM | IC50 (tumor cell lines; read-out: cytotoxicity IC50 against four tumor cell lines, four tumor cell lines): 25.1 to 41.7 µM
7 | C=CC(C)(CC/C=C(\C)CCC=C(C)C)c1ccc(OC)c(O)c1 (centres unmarked) [Compound 4, 1O-monomethyl derivative of 4-NC] | – | – | – | weak cytotoxic activity | 600 µM | IC50 [6]: 57.4 µM
8 | C=CC(C)(CC/C=C(\C)CCC=C(C)C)c1ccc(O)c(OC)c1 (centres unmarked) [Compound 5, 2O-monomethyl 4-NC derivative] | – | – | – | weak cytotoxic activity | 1200 µM | IC50 [7]: 43.9 to 63.1 µM
9 | C=CC(C)(CC/C=C(\C)CCC=C(C)C)c1ccc(OC(=O)c2ccccc2)c(OC(=O)c2ccccc2)c1 (centres unmarked) [Compound 6, O,O-dibenzoyl 4-NC] | 8.83 ± 0.23 ^b % | > 95.8 µM | 3.46 ± 0.63 ^c % | moderately toxic | – | activity against tumor cells (tumor cell lines): inactive; inhibition of the oxidation of DCFH-DA in 3T3L1 cells [4]: ≥ 20%; LC50 (Brine shrimp assay): 69 µM
10 | C=CC(C)(CCC1OC1(C)CCC1OC1(C)C)c1ccc(OC(C)=O)c(OC(C)=O)c1 (centres unmarked) [Compound 8] | 0.31 ± 0.01 ^c % | > 116 µM | 7.39 ± 3.66 ^c % | – | – | inhibition of the oxidation of DCFH-DA in 3T3L1 cells [4]: ≥ 20%
11 | O=c1c(O)c(-c2ccc(O)c(O)c2)oc2cc(O)cc(O)c12 [Quercetin, quercetin, reference compound] | 99.7 ± 0.02 ^a % | – | 91.4 ± 0.12 ^a % | – | – | loss of antioxidant activity after storage ([4]; 3T3L1 cells): ≥ 70%
